According to article PMC10742785, “Screening and Characterization of an α-Amylase Inhibitor from Carya cathayensis Sarg. Peel” (Foods, 2023):

Target: T1, α-amylase (hog pancreas) (Sus scrofa, UniProt P00690)
T1 construct: gene AMY2
T1 sequence (P00690 16-511): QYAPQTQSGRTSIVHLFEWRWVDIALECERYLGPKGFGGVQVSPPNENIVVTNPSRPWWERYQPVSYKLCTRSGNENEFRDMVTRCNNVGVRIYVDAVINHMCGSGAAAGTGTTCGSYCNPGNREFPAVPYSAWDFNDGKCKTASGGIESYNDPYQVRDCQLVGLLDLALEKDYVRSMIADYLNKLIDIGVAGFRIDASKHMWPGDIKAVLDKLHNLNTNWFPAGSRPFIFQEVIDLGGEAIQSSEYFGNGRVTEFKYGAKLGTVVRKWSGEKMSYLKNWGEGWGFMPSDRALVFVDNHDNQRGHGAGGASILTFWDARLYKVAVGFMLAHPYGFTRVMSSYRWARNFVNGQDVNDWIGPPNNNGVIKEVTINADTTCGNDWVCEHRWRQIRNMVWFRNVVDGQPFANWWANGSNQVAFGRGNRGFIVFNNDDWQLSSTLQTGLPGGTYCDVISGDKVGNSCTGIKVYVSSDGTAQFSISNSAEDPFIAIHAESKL
Test: DNS starch hydrolysis assay with hog pancreas α-amylase; Lineweaver–Burk, Dixon and Eisenthal–Cornish-Bowden kinetics
Type: biochemical

## O=C(/C=C/c1ccc(O)cc1)O[C@@H]1CC(O)(C(=O)O)C[C@@H](O)C1O (stereo partly shown) [5-CQA, 5-O-p-coumaroylquinic acid]
  IC50: 69.4 µM
